The values below come from article PMC11113362 (MicrobiologyOpen, 2024).

Data set [1] has as its target T1, PA4985 solute binding protein (Pseudomonas aeruginosa, UniProt Q9HUI0). To be noted: thermal shift assay, Biolog compound arrays, more than 2°C considered significant.
Method: (§1) Briefly, assays were carried out using a MyIQ2 Real‐Time PCR instrument (BioRad). Experiments were conducted in 96‐well plates, and each assay mixture contained 20.5 μL of the dialyzed protein at 10–50 μM, 2 μL of 5X SYPRO orange (Life Technologies) and 2.5 μL of ligand solution or the equivalent amount of buffer in the ligand‐free control. Compound arrays PM1, PM2a, PM3B, PM4A, PM5, PM6, PM7, and PM8 from Biolog (Newark) were used. Compounds were dissolved in 50 μL water that, according to the information provided by the manufacturer, corresponds to a concentration of 10–20 mM. […] The protein unfolding curves were monitored by detecting changes in SYPRO Orange fluorescence. The Tm values correspond to the minima of the first derivatives of the raw fluorescence data.
Data set [2] deals with P. aeruginosa PAO1. The experiment in a line: Growth experiments with ligand as sole carbon source. The conditions noted are these: M9 minimal medium, 10 mM compound, 37°C.
In data set [3] the target is T1, PA4985 solute binding protein. The experiment in a line: biochemical. Further details: species or system Pseudomonas aeruginosa PAO1. From the text: PA4985 is an uncharacterized protein. […] .
The target of data set [4] is T2, PA0602 solute binding protein (Pseudomonas aeruginosa, UniProt Q9I5T6). The conditions noted are these: thermal shift assay, Biolog compound arrays, more than 2°C considered significant.
Method: as §1
The PA0602 protein was overexpressed in E. coli and purified. Freshly dialyzed protein was submitted to thermal shift assays‐based ligand screening using the Biolog compound arrays PM1, PM2A (both carbon sources), PM3B (nitrogen sources), PM4 (phosphorous and sulfur sources), PM5 (nutrient supplements), PM6, PM7, and PM8 (all peptide nitrogen sources). Ligand binding to the protein typically delays thermal unfolding causing increases in the midpoint of the protein unfolding transition (Tm). Tm increases of more than 2°C are considered significant.
Data set [5] has as its target T2, PA0602 solute binding protein. The experiment in a line: biochemical. Also noted: species or system Pseudomonas aeruginosa PAO1. To be noted: for K D: PA0602, microcalorimetric titration, TMP buffer pH 8. From the text:
At times thermal shift assays provide […] results, i.e. although there is binding, the Tm shift induced is only minor.

Data set [6] addresses T3, AgtB (PA0604) solute binding protein (Pseudomonas aeruginosa, UniProt Q9I5T4). The conditions noted are these: microcalorimetric titration, TMP buffer pH 8.
Method: (§2) Experiments were conducted on a VP‐microcalorimeter (Microcal). Proteins were dialyzed into the TMP buffer, placed at a concentration of 20–40 µM into the sample cell and titrated with 0.25–2.5 mM ligand solutions that were prepared using the dialysis buffer immediately before use. […] The mean enthalpies measured from the injection of ligands into the buffer were subtracted from raw titration data before data analysis with the MicroCal version of ORIGIN. Data were fitted with the “One binding site model” of ORIGIN.
The target of data set [7] is T3, AgtB (PA0604) solute binding protein. To be noted: thermal shift assay, Biolog compound arrays, more than 2°C considered significant.
Method: as §1
To identify the ligands that interact with AgtB, we pursued the same strategy and screened for ligand binding using the PM1 to PM8 compound arrays.
The target is the same in data set [8]. The experiment in a line: biochemical.
Method: as §2
Data set [9] has as its target T4, PA0602 (Pseudomonas aeruginosa, UniProt Q9I5T6).
T4 construct: residues 22-344, signal peptide omitted, N-terminal His-tag with thrombin site, expressed in E. coli BL21 (DE3)
The experiment in a line: Isothermal titration calorimetry (VP-microcalorimeter) of 20-40 µM purified SBP titrated with 0.25-2.5 mM ligand in TMP buffer (5 mM Tris-HCl, 5 mM MES, 5 mM PIPES, 10% glycerol, pH 8), fitted with the one binding site model; temperature not stated.

Data set [10] concerns the target T5, PA4985 (Pseudomonas aeruginosa, UniProt Q9HUI0).
T5 construct: residues 40-363, signal peptide omitted, N-terminal His-tag with thrombin site, expressed in E. coli BL21 (DE3)
The description is as above.

In data set [11] the test system is P. aeruginosa. Further details: method as in Dagorn et al., 2013. The conditions noted are these: 10 μM GABA; ref Dagorn et al., 2013; cited from earlier work.
In data set [12] the test system is AgtS‐LBD (PA0600, amino acids 22–274). The data set can be described thus: Isothermal titration calorimetry of AgtS‐LBD (small ligand and protein‐protein binding studies). The conditions noted are these: for K D (binding of SBP to AgtS‐LBD): 5–10 μM SBP titrated with 50–97 μM AgtS‐LBD, no small ligand; for Protein–protein interaction with AgtS‐LBD, His‐tag‐free protein: His‐tag removed by thrombin, in the presence of GABA (PA0602) or 5‐AMV (AgtB); for K D (binding of ligand‐loaded SBP to AgtS‐LBD): both compartments contained 5 mM 5‐AMV (AgtB) or 1 mM GABA (PA0602).
Method: as §2
Fractions that correspond to cleaved protein were dialyzed overnight into the TMP buffer for ITC experiments.
To address this issue, the individual AgtS‐LBD was produced as a purified, recombinant protein.
To assess the possibility of SBP‐mediated activation of AgtS, we conducted protein‐protein microcalorimetric binding studies (Table 1).
Proteins used for these experiments contained an N‐terminal extension harboring the His‐tag. To exclude the possibility that the presence of this extension impedes protein interaction, the tag was cleaved with thrombin in freshly purified PA0602, AgtB, and AgtS‐LBD and its removal was verified by SDS‐PAGE (Figure A4).

Data set [13] deals with T6, AruS‐LBD (PA4982, residues 31–141) (Pseudomonas aeruginosa, UniProt Q9HUI3).
T6 sequence (Q9HUI3 whole entry, looked up): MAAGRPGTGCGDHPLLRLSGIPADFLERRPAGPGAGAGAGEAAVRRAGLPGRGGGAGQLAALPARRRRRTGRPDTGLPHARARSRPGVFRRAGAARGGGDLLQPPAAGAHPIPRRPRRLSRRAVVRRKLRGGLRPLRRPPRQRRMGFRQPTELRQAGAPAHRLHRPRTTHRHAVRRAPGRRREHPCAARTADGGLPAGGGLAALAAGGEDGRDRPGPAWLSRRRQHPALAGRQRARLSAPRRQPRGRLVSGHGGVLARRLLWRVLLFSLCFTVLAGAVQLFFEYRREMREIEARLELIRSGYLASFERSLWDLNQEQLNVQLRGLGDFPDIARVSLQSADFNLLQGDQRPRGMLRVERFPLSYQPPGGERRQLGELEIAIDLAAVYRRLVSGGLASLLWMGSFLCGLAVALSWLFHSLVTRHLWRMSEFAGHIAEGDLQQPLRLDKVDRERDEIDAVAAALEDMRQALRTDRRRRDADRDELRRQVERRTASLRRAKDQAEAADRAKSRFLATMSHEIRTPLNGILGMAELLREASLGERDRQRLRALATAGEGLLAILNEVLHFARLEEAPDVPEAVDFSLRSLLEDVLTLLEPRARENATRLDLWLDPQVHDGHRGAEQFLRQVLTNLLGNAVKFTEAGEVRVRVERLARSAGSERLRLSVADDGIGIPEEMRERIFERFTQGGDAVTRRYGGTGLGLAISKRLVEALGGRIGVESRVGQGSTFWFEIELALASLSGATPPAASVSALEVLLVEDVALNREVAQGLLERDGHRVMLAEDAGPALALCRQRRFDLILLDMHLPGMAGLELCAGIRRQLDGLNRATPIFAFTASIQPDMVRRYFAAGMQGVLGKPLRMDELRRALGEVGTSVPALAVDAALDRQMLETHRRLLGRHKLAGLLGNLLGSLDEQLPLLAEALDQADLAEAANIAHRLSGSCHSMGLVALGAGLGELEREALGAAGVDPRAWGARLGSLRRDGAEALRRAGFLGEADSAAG
The experiment in a line: Bacterial two‐hybrid assay (BACTH). To be noted: BACTH in E. coli BTH101 on X‐Gal plates; no ligand or GABA, 5‐AMV, spermidine or ethylenediamine at 5 mM.
Method: Plates were incubated at 30°C for 24–48 h. As a positive control, the plasmids pKT25‐zip and pUT18C‐zip were co‐transformed into E. coli BTH101. Negative controls were E. coli BTH101 harboring pUT18C and pKNT25::AruS (strain K^+T^−), and a strain harboring pUT18C::PA4985 and pKNT25 (strain K^−T^+).
This system is based on an adenylate cyclase that contains two catalytically active domains. […] The resulting increase in cAMP induces the expression of lactose and maltose operons, causing a blue colouration of bacteria on X‐Gal‐containing plates. We generated a plasmid that expresses PA4985 fused to one enzyme subunit (pUT18C::PA4985) and a plasmid encoding a fusion of AruS‐LBD to the other subunit (pKNT25::AruS). E. coli BTH101 was transformed with both plasmids, resulting in strain K^+T^+. The K^+T^− and K^−T^+ are negative control strains that contained one of the plasmid constructs (plus sign) and the empty version of the second plasmid (minus sign). The positive control (C+) was provided by the manufacturer.

Entries after “also recorded” stand apart in the source; their conditions may differ. Read-outs that look alike come from different tables or passages of the source. Where a SMILES comes first, the peptide text is derived from it.

Broadly, the Kd is a measure of binding affinity in units of concentration. Regarding `NCCCCNCCCN` [Spermidine, spermidine], the Tm shift was 2.8 °C in data set [1] and “No binding” in data set [4]. In addition, the “Growth as sole carbon source” value in data set [2] was “significant growth”. Also, binding in [3] was characterised by a dissociation constant (Kd) of 160 ± 23 µM. Further, in [5], the “K D” value is recorded as “No binding”.
`NCCCCN` [putrescine]: in data set [4], the Tm shift result is recorded as “No binding”. In addition, the “K D” value in data set [5] is reported as “No binding”.
For the molecule `NCCC(=O)O` [β‐alanine], the “K D” value in data set [6] was “No binding”. Also, the Tm shift result in data set [7] is recorded as “No binding”.
On to `NCCCCC(=O)O` [5‐AMV, 5‐aminovalerate], for which the Tm shift came out at 7.6 °C in [1] and 2.3 °C in data set [4]. In addition, in [2], the “Growth as sole carbon source” value is listed as “significant growth”. Also, the results for the Kd in data set [3], in data set [5] and in data set [8] were 1.6 ± 0.1 µM, 30 ± 2 µM and 17 ± 0.8 µM, respectively.
As to `NCCN` [Ethylenediamine, ethylenediamine], the Kd in data set [9] stood at 103 ± 4 µM; in data set [10], 19 ± 1 µM. For the same molecule, the results for the Tm shift in data set [1] and in data set [4] were 3.5 °C and 2.0 °C, respectively.
`C[C@H](N)C(=O)NCC(=O)O` [Ala‐Gly] (H-Ala-Gly-OH): the “K D” value in data set [6] is listed as “did not reveal binding”.
Consider `NCC(=O)N[C@@H](CCC(N)=O)C(=O)O` [Gly‐Gln] (H-Gly-Gln-OH), for which the “K D” value in data set [6] was “did not reveal binding”.
As to `NCCCC(=O)O` [GABA, γ‐aminobutyrate], the “K D” value in [6] is “did not reveal binding; also recorded: No binding”. For the same molecule, the “Growth as sole carbon source” value in [2] was “significant growth”. The molecule further gave a Kd in data set [3] of 0.58 ± 0.1 µM. The same molecule came in with a dissociation constant (Kd) in data set [5] of 2.3 ± 0.8 µM. Further, in [11], the Cytotoxicity and virulence result was “strongly increased”; the Growth or motility result is “did not modulate”.
For the molecule `CC(=O)N[C@@H]1[C@@H](O)[C@H](O)[C@@H](CO)O[C@@H]1O` [N‐acetyl‐D‐glucosamine], the “Binding of small ligand to AgtS‐LBD” value in [12] (microcalorimetric titration of AgtS‐LBD) is “did not show binding”. For the same molecule, the “K D” value in data set [6] is recorded as “absence of binding; also recorded: No binding”; in [5], “absence of binding”; in data set [5] (listed as NADG) it was “No binding”. Also, the results for the Tm shift entry in data set [4], in [4] (listed as NADG) and in [7] were “absence of binding”, “No binding” and “absence of binding; also recorded: No binding”, respectively.
With `N=C(N)NCCC[C@H](N)C(=O)O` [L‐Arg], the Tm shift result in data set [1] was “No binding”. Besides, the “K D” value in data set [3] (PA4985, microcalorimetric titration, TMP buffer pH 8) was “No binding”.

B1: PA4985: solute binding protein (SBP_bac_8) of P. aeruginosa PAO1 encoded near the aruSR TCS (protein)
chain: MGSSHHHHHHSSGLVPRGSHMADDGLVVVGYGGAGQKAQEVAFFQPFTQQTGIPVVQSEYNGEMARIKVMADTGHADWDLVQVEGPDLARGCDDGLFERLDWQAIGGKQQLIANAAQECGSAALVWGVAIGYDADRLQQPPASWADFWDVQRFPGKRGLRKRAIYNLEFALLADGVPREQVYPLLATRAGADRAFAKLGQLKPYIQWWEAGAQPAQWLAAGDVVMTSTYTGRIADAHRAGRNLALVWQGSLYGMDYWAVVKGSKRGAEARRFIAFANAPDAQVRYVENIPYGPTNRQAAQRLPAQLASWVPTAPANLEQGLAMDDEFWVEHGEELEERFNAWASQ
Consider B1, for which the “PA4985/AruS‐LBD interaction” value in [13] is on record as “did not demonstrate an interaction; also recorded: absence of an PA4985/AruS–LBD interaction”.

B2: PA0602: recombinant His‐tagged solute binding protein (SBP_bac_8) of P. aeruginosa PAO1 (protein)
chain: MGSSHHHHHHSSGLVPRGSHMAEYVTVISFGGANKEAQETAFYKPFKSATGNRVVHGSYNGDLAKLKRMVEISHVSWDVVEVEAPELARGCEEGLFEKLDMAKVGDPADFVPGAVQPCGVGIFVWTTLLAYNPGKVAGSPQGWADFWDVKKFPGKRGLRWGAKYSLEFALMADGVAPKDVYQTLATPAGVERAFRKLDELKPYIHWWKSGQDPVRDLADGTVVMSSAYNGRIAAAQAEKQRLAMVWSGGVYDFDFWALPVGVWKKQLAEEFIRFASQPEQQKAFAENIAYGPANRKAVGLLDPQVAANLPTAPQNMQNAVGMNVAFWAEHGEALEQRFQNWAKR
As for B2, in [12], the “K D (binding of SBP to AgtS‐LBD)” value is “did not show any binding; also recorded: did not reveal binding; also recorded: No binding”; the “Protein–protein interaction with AgtS‐LBD, His‐tag‐free protein” value is listed as “did not result in any protein–protein interaction”; the “K D (binding of ligand‐loaded SBP to AgtS‐LBD)” value is reported as “absence of binding”.

B3: AgtB: recombinant His‐tagged solute binding protein (SBP_bac_8) of P. aeruginosa PAO1, part of the agt transporter operon (protein)
chain: MGSSHHHHHHSSGLVPRGSHMAVDLTVVSFGGANKSAQIKAFYEPYQKATGNRIVAGEYNGEMAKVKAMVDTNSVSWDLVEVESPELSRGCDEGLFEELDPAQFGKTEDFVPGAIQPCGVGFFVWSTVLAYNADKLKSAPTSWADFWDIKKFPGKRGLRKGAKYTLEFALMADGVAPKDVYGVLATKEGQDRAFKKLDEIKSSIQWWEAGAQPPQYLASGDVVMSSAYNGRIAAVQKESNLKVVWNGGIYDFDAWAIPKGAKKREETLKFIAFSVQPQQQKTYSENIAYGPANKQAVPLLDKALLKDMPTTPENIQNQVAMDVTFWADYGEQLEQRFNAWAAR
Consider B3, for which, in [12], the “K D (binding of SBP to AgtS‐LBD)” value is “did not show any binding; also recorded: did not reveal binding; also recorded: No binding”; the “Protein–protein interaction with AgtS‐LBD, His‐tag‐free protein” value is recorded as “did not result in any protein–protein interaction”; the “K D (binding of ligand‐loaded SBP to AgtS‐LBD)” value was “absence of binding”.
